From PubChem BioAssay AID1745844 (Carcinogenic Potency Database (CPDB), 2022)
Values joined by “and” are separate entries in the source; they are usually repeats but may differ in a detail not shown here. Identical values can stand only once.

Tested on: rodent lifetime carcinogenesis bioassay, tumor incidence TD50
Experiment: chronic cancer bioassays in animals – CPDB, compiled studies (AID 1745844)
Conditions: rat, inhaled

Work on C=CCl yielded a TD50 (strain Sprague-Dawley, males, site: extrahepatic tissue, lesion: angiosarcoma, dosed 25 weeks, study length 115 weeks) of 468 mg/kg/day, a TD50 (strain Sprague-Dawley, males, site: extrahepatic tissue, lesion: angiosarcoma, dosed 52 weeks, study length 123 weeks) of 63 mg/kg/day and a TD50 (strain Sprague-Dawley, males, site: extrahepatic tissue, lesion: angiosarcoma, dosed 52 weeks, study length 131 weeks) of 14900 mg/kg/day. It also gave a TD50 (strain Sprague-Dawley, males, site: extrahepatic tissue, lesion: angiosarcoma, dosed 52 weeks, study length 139 weeks) of 11.7 mg/kg/day, a TD50 (strain Sprague-Dawley, males, site: kidney, lesion: nephroblastoma, dosed 25 weeks, study length 139 weeks) of 1940 mg/kg/day and a TD50 (strain Sprague-Dawley, males, site: kidney, lesion: nephroblastoma, dosed 52 weeks, study length 123 weeks) of 37.8 mg/kg/day. For the same compound, the TD50 (strain Sprague-Dawley, males, site: kidney, lesion: nephroblastoma, dosed 52 weeks, study length 131 weeks) was 2960 mg/kg/day, the TD50 (strain Sprague-Dawley, males, site: kidney, lesion: nephroblastoma, dosed 52 weeks, study length 139 weeks) was 28.9 mg/kg/day and the TD50 (strain Sprague-Dawley, males, site: liver, lesion: angioma, dosed 25 weeks, study length 115 weeks) was 580 mg/kg/day. The TD50 (strain Sprague-Dawley, males, site: liver, lesion: angioma, dosed 25 weeks, study length 139 weeks) was 1030 mg/kg/day, the TD50 (strain Sprague-Dawley, males, site: liver, lesion: angioma, dosed 52 weeks, study length 123 weeks) was 106 mg/kg/day and 54.3 mg/kg/day and the TD50 (strain Sprague-Dawley, males, site: liver, lesion: angiosarcoma, dosed 25 weeks, study length 115 weeks) was 871 mg/kg/day. The TD50 (strain Sprague-Dawley, males, site: liver, lesion: angiosarcoma, dosed 52 weeks, study length 123 weeks) was 76.7 mg/kg/day and 62.4 mg/kg/day, the TD50 (strain Sprague-Dawley, males, site: liver, lesion: angiosarcoma, dosed 52 weeks, study length 130 weeks) was 90 mg/kg/day and the TD50 (strain Sprague-Dawley, males, site: liver, lesion: angiosarcoma, dosed 52 weeks, study length 131 weeks) was 875 mg/kg/day. The TD50 (strain Sprague-Dawley, males, site: liver, lesion: angiosarcoma, dosed 52 weeks, study length 139 weeks) was 75.8 mg/kg/day, the TD50 (strain Sprague-Dawley, males, site: liver, lesion: hepatocellular carcinoma, dosed 52 weeks, study length 130 weeks) was 40.8 mg/kg/day and the TD50 (strain Sprague-Dawley, males, site: liver, lesion: hepatoma, dosed 52 weeks, study length 123 weeks) was 152 mg/kg/day. It also gave a TD50 (strain Sprague-Dawley, males, site: liver, lesion: hepatoma, dosed 52 weeks, study length 131 weeks) of 13400 mg/kg/day, a TD50 (strain Sprague-Dawley, males, site: liver, lesion: several types, types named in the paper, dosed 52 weeks, study length 130 weeks) of 294 mg/kg/day and a TD50 (strain Sprague-Dawley, males, site: pituitary gland, lesion: one or several types, types not named, dosed 52 weeks, study length 130 weeks) of 138 mg/kg/day. The TD50 (strain Wistar, females, site: Zymbal's gland, lesion: squamous-cell carcinoma, dosed 52 weeks, study length 52 weeks) was 857 mg/kg/day, the TD50 (strain Wistar, females, site: liver, lesion: angiosarcoma, dosed 52 weeks, study length 52 weeks) was 209 mg/kg/day and the TD50 (strain Wistar, females, site: liver, lesion: hepatocellular carcinoma, dosed 52 weeks, study length 52 weeks) was 1810 mg/kg/day. It also gave a TD50 (strain Wistar, females, site: liver, lesion: neoplastic nodule, dosed 52 weeks, study length 52 weeks) of 1810 mg/kg/day, a TD50 (strain Wistar, females, site: lung, lesion: papillary adenoma, dosed 52 weeks, study length 52 weeks) of 1810 mg/kg/day and a TD50 (strain Wistar, females, site: nasal cavity, lesion: olfactory epithelial carcinoma, dosed 52 weeks, study length 52 weeks) of 276 mg/kg/day. The TD50 (strain Wistar, males, site: Zymbal's gland, lesion: carcinoma, dosed 52 weeks, study length 125 weeks) was 3540 mg/kg/day, the TD50 (strain Wistar, males, site: Zymbal's gland, lesion: squamous-cell carcinoma, dosed 52 weeks, study length 52 weeks) was 330 mg/kg/day and the TD50 (strain Wistar, males, site: any site (literature study), lesion: several types, types named in the paper, dosed 52 weeks, study length 78 weeks) was 5.44 mg/kg/day. The TD50 (strain Wistar, males, site: any site (literature study), lesion: several types, types named in the paper, dosed 52 weeks, study length 125 weeks) was 1130 mg/kg/day, the TD50 (strain Wistar, males, site: brain, lesion: neuroblastoma, dosed 52 weeks, study length 125 weeks) was 4140 mg/kg/day and the TD50 (strain Wistar, males, site: brain, lesion: one or several types, types not named, dosed 52 weeks, study length 78 weeks) was 5820 mg/kg/day. The TD50 (strain Wistar, males, site: extrahepatic tissue, lesion: angioma, dosed 52 weeks, study length 125 weeks) was 72700 mg/kg/day, the TD50 (strain Wistar, males, site: extrahepatic tissue, lesion: angioma, dosed 52 weeks, study length 127 weeks) was 0.37 mg/kg/day and the TD50 (strain Wistar, males, site: extrahepatic tissue, lesion: angiosarcoma, dosed 52 weeks, study length 125 weeks) was 8490 mg/kg/day. For the same compound, the TD50 (strain Wistar, males, site: extrahepatic tissue, lesion: angiosarcoma, dosed 52 weeks, study length 127 weeks) was 1.05 mg/kg/day, the TD50 (strain Wistar, males, site: kidney, lesion: nephroblastoma, dosed 52 weeks, study length 125 weeks) was 4510 mg/kg/day and the TD50 (strain Wistar, males, site: liver, lesion: angioma, dosed 52 weeks, study length 125 weeks) was 3620 mg/kg/day. For the same compound, the TD50 (strain Wistar, males, site: liver, lesion: angioma, dosed 52 weeks, study length 127 weeks) was 0.654 mg/kg/day, the TD50 (strain Wistar, males, site: liver, lesion: angiosarcoma, dosed 52 weeks, study length 52 weeks) was 330 mg/kg/day and the TD50 (strain Wistar, males, site: liver, lesion: angiosarcoma, dosed 52 weeks, study length 78 weeks) was 10.2 mg/kg/day. The TD50 (strain Wistar, males, site: liver, lesion: angiosarcoma, dosed 52 weeks, study length 125 weeks) was 518 mg/kg/day, the TD50 (strain Wistar, males, site: liver, lesion: hepatocellular carcinoma, dosed 52 weeks, study length 52 weeks) was 1140 mg/kg/day and the TD50 (strain Wistar, males, site: liver, lesion: hepatoma, dosed 52 weeks, study length 125 weeks) was 4860 mg/kg/day. The TD50 (strain Wistar, males, site: liver, lesion: hepatoma, dosed 52 weeks, study length 127 weeks) was 0.728 mg/kg/day, the TD50 (strain Wistar, males, site: lung, lesion: angiosarcoma, dosed 52 weeks, study length 78 weeks) was 193 mg/kg/day and the TD50 (strain Wistar, males, site: lung, lesion: one or several types, types not named, dosed 52 weeks, study length 78 weeks) was 867 mg/kg/day. The TD50 (strain Wistar, males, site: nasal cavity, lesion: olfactory epithelial carcinoma, dosed 52 weeks, study length 52 weeks) was 533 mg/kg/day, the carcinogen call (strain Wistar, males, site: nose, lesion: one or several types, types not named, dosed 52 weeks, study length 78 weeks) was “positive” and the TD50 (strain Wistar, males, site: skin, lesion: one or several types, types not named, dosed 52 weeks, study length 78 weeks) was 5820 mg/kg/day. For the same compound, the carcinogen call (strain Wistar, males, site: testis, lesion: one or several types, types not named, dosed 52 weeks, study length 78 weeks) was “positive”.
